# System: graft related arrhythmias (sustained VT)
# Experiment: Treatment of graft-induced arrhythmia in pig model (myocardial infarction plus cardiomyocyte graft)
# Details: pig P2, after VT on day 10/11; by day 13 onwards
smiles,measurement,value
CCCCc1oc2ccccc2c1C(=O)c1cc(I)c(OCCN(CC)CC)c(I)c1 [amiodarone],effect of adjusting the dosage on rhythm,effective at achieving normal sinus rhythm

# — patent US20260097012A1, “COMPOSITIONS AND METHODS FOR TREATING GRAFT-RELATED ARRHYTHMIA” (BlueRock Therapeutics LP, priority 2022, published 2026)
